Experimental data taken from ChEMBL document CHEMBL6153100, “Controlins I-X, Resin Glycosides from the Seeds of Convolvulus tricolor and Their Biological Activities” (J Nat Prod, 2025).
Active and inactive are the calls of the source. The calls are words filed in the database; no cut-off is given here.

What was measured:
Caenorhabditis elegans = test: Anti-alzheimer activity in transgenic Caenorhabditis elegans UM0001 expressing Amyloid-beta/Tau assessed as decrease in dyskinesia measured for 30 mins by basal slowing response assay; type: functional, organism-based; conditions: dose 1-4 µM
PC-12 = test: Neuroprotective activity in H2O2-induced oxidative damage in rat PC12 cells assessed as increase in cell survival rate at 1 to 10 uM pre-incubated for 2 hrs followed by H2O2 addition and measured after 24 hrs by MTT assay; type: functional, cell-based; conditions: dose 1-10 µM, time 26.0 hrs
BV-2 = test: Antineuroinflammatory activity in LPS-induced mouse BV-2 microglial cells assessed as inhibition of nitric oxide production incubated for 24 hrs by Griess reagent assay; type: functional, cell-based; conditions: BV-2, 24 h

IC50 (BV-2) | SMILES | Activity (Caenorhabditis elegans) | Activity (PC-12)
19.1 µM | C/C=C(\C)C(=O)OC[C@H]1O[C@@H](O[C@H]2[C@H](O)[C@@H](CO)O[C@@H](O[C@H]3[C@H](O[C@@H](CCCC)CCCCCCCCCCC(=O)OC)O[C@H](CO[C@@H]4O[C@H](C)[C@H](O)[C@H](O)[C@H]4O)[C@@H](O)[C@@H]3O)[C@@H]2O[C@@H]2O[C@@H](C)[C@H](OC(=O)[C@H](C)[C@@H](C)OC(=O)[C@H](C)[C@@H](C)O[C@@H]3O[C@H](C)[C@@H](O)[C@H](O)[C@H]3O)[C@@H](O[C@@H]3O[C@H](CO)[C@@H](O)[C@H](O)[C@H]3O)[C@H]2O)[C@H](O)[C@@H](O[C@@H]2O[C@H](CO)[C@@H](O)[C@H](O)[C@H]2O)[C@@H]1O | – | Active
6.73 µM | C/C=C(\C)C(=O)OC[C@H]1O[C@@H](O[C@H]2[C@H](O)[C@@H](COC(=O)[C@H](C)[C@@H](C)O)O[C@@H](O[C@H]3[C@H](O[C@@H](CCCC)CCCCCCCCCCC(=O)OC)O[C@H](CO[C@@H]4O[C@H](C)[C@H](O)[C@H](O)[C@H]4O)[C@@H](O)[C@@H]3O)[C@@H]2O[C@@H]2O[C@@H](C)[C@H](OC(=O)[C@H](C)[C@@H](C)OC(=O)[C@H](C)[C@@H](C)O[C@@H]3O[C@H](C)[C@@H](O)[C@H](O)[C@H]3O)[C@@H](O[C@@H]3O[C@H](CO)[C@@H](O)[C@H](O)[C@H]3O)[C@H]2O)[C@H](O)[C@@H](O[C@@H]2O[C@H](CO)[C@@H](O)[C@H](O)[C@H]2O)[C@@H]1O | Dose-dependent-effect | –

The remaining lines, values behind:

SMILES | IC50 (BV-2) | Activity (Caenorhabditis elegans) | Activity (PC-12)
C/C=C(\C)C(=O)OC[C@H]1O[C@@H](O[C@H]2[C@H](O)[C@@H](COC(=O)[C@H](C)[C@@H](C)O)O[C@@H](O[C@H]3[C@H](O[C@@H](CCCC)CCCCCCCCCCC(=O)OC)O[C@H](CO[C@@H]4O[C@@H](C)[C@H](O)[C@@H](O)[C@H]4O)[C@@H](O)[C@@H]3O)[C@@H]2O[C@@H]2O[C@@H](C)[C@H](OC(=O)[C@H](C)[C@@H](C)OC(=O)[C@H](C)[C@@H](C)O[C@@H]3O[C@H](C)[C@@H](O)[C@H](O)[C@H]3O)[C@@H](O[C@@H]3O[C@H](CO)[C@@H](O)[C@H](O)[C@H]3O)[C@H]2O)[C@H](O)[C@@H](O[C@@H]2O[C@H](CO)[C@@H](O)[C@H](O)[C@H]2O)[C@@H]1O | – | Dose-dependent-effect | Active
CCCC[C@@H](CCCCCCCCCCC(=O)C=O)O[C@@H]1O[C@H](CO[C@H]2O[C@H](C)[C@@H](O)[C@@H](O)[C@H]2O)[C@@H](O)[C@H](O)[C@H]1O[C@@H]1O[C@H](CO)[C@@H](O)[C@H](O[C@@H]2O[C@H](CO)[C@@H](O)[C@H](O)[C@H]2O)[C@H]1O[C@@H]1O[C@@H](C)[C@H](OC(=O)[C@H](C)[C@@H](C)OC(=O)[C@H](C)[C@@H](C)O[C@@H]2O[C@H](C)[C@@H](O)[C@H](O)[C@H]2O[C@@H]2O[C@H](CO)[C@@H](O)[C@H](O)[C@H]2O)[C@@H](O[C@@H]2O[C@H](CO)[C@@H](O)[C@H](O)[C@H]2O)[C@H]1O | – | – | Active
C/C=C(\C)C(=O)OC[C@H]1O[C@@H](O[C@H]2[C@H](O)[C@@H](CO)O[C@@H](O[C@H]3[C@H](O[C@@H](CCCC)CCCCCCCCCCC(=O)OC)O[C@H](CO[C@@H]4O[C@H](C)[C@H](O)[C@H](O)[C@H]4O)[C@@H](O)[C@@H]3O)[C@@H]2O[C@@H]2O[C@@H](C)[C@H](OC(=O)[C@H](C)[C@@H](C)OC(=O)[C@H](C)[C@@H](C)O[C@@H]3O[C@H](C)[C@@H](O)[C@H](O)[C@H]3O)[C@@H](O[C@@H]3O[C@H](CO)[C@@H](O)[C@H](O)[C@H]3O)[C@H]2O)[C@H](O)[C@@H](O)[C@@H]1O | 9.7 µM | – | –
